Measurements reported in patent US7550469B2, “Heterocyclic amide derivatives and their use as dopamine D3 receptor ligands” (Aventis Pharmaceuticals Inc., priority 2001, dated 2009).
Like-named read-outs stand apart in the source and are kept apart here.

Target: T1, cloned human alpha-1A adrenergic receptors (α1a) (Homo sapiens, UniProt P35348)
T1 construct: expressed in transfected cells; host or cells: CHO cells, G418-resistant clone, pcDNA3 vector; membrane fragments
T1 sequence (P35348 1-466): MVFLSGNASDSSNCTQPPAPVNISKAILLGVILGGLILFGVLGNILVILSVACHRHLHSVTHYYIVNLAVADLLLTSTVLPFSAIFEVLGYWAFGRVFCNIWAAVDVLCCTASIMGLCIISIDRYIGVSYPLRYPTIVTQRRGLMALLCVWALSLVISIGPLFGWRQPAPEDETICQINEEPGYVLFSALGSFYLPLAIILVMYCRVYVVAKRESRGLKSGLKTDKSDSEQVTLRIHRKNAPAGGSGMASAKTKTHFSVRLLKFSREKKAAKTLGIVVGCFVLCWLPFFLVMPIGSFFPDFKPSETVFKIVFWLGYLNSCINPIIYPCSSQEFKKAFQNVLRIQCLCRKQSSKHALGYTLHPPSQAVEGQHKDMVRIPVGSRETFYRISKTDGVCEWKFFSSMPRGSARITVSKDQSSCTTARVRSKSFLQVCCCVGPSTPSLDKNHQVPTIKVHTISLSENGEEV
Assay: [3H]Prazosin binding to cloned human alpha-1A adrenergic receptors expressed in CHO cells
Source text: ^3H]PRAZOSIN BINDING TO CLONED HUMAN ALPHA-1A ADRENERGIC RECEPTORS (α1a) EXPRESSED IN CHINESE HAMSTER OVARY CELLS (CHO)
Purpose: This in vitro assay is designed as a screen to identify compounds displaying a affinity for the human α1a adrenoceptor subtype expressed in the membrane fragments of CHO cells. The assay measures the ability of the test compounds to displace [^3H] prazosin from α1a sites. • The identification of multiple vascular α1-addrenoceptors (α1a, α1b, α1d) in vitro has provided impetus to define the role(s) of these subtypes in cardiovascular regulation in vivo (Vargas and Gorman, 1995). […] Prazosin is a potent antagonist of the human α1a-adrenoceptor subtype, which has been cloned and is expressed in the membrane fragments of CHO cells. hα1a Receptor: The cloning of the human α1a cDNA was accomplished first by screening a human prostate cDNA library (Clontech), from which a portion of the coding region was obtained. This DNA fragment was then used to screen a human leukocyte genomic library (Clontech), and the rest of the coding sequence was obtained. Later these two fragments were spliced together. The entire coding sequence was then fully sequenced including matching PCR sequence with original genomic coding sequence, thus ensuring splice sites were joined correctly (Schwinn et al., 1995). Once sequenced, the gene was subcloned into the expression vector pcDNA3 (Invitrogen). Plasmid DNA was then used for transfection into CHO cells and G418 resistant clones were isolated. A clone expressing high levels of the hα1a receptor (as determined by mRNA and receptor binding data) was chosen and pharmacologically characterized. Culture Media: Media Ingredients for Adherent α1a expressing CHO Culture: • A. HAM's F-12 (Cellgro) • B. 10% 0.2 micron filtered Fetal Bovine Serum (FBS)(Cellgro) • C. 1% 0.2 micron filtered Penicillin-Streptomycin (Celigro) • D. G418 0.2 micron filtered (Geneticin 400 μg/ml)(Cellgro) • Cells are cultured using established methods and procedures in either 150×25 mm culture plates (scale up to 100 plates) or a combination of these plates and 70 roller bottles. One culturing/harvest cycle typically requires 2 weeks and yields between 100-400 mg protein. Plates or bottles are incubated at 37° C.+5% CO2. Storage: Cells are harvested by mechanical scraping, washed using PBS, collected in 250 ml Corning polypropylene centrifuge tubes, spun down (1500RPM) and resuspended in dH2O 10% DMSO (final volume per harvest is approximately 50 ml). Protein determination is made using the Biorad DC Assay Kit. Finally, the appropriate volume is aliquoted into a 2 ml Corning Cryovial (10 mg/1-1.5 ml) which is stored at −80° C. Current Lot Data:
Assay Requirement: 0.5 cryovials per 96 well plate (assay volume=200 μl/well) [^3H]-Ligand: [7-methoxy-^3H]-Prazosin: 1.0 nM (NEN, NET-823) • 70-87 Ci/mmol Materials: Phentolamine mesylate (Research Biochemicals Int. #P-131) • 96 well flat bottom plates (Beckman) • Unifilter GF/B Plate (Packard) • Polyethylenimine (Sigma #P-3134) • TomTec or Packard Filtermate 196 Cell Harvesters • Packard TopCount Scintillation Counter Buffers: A: 50 mM Tris HCl; 0.1% ascorbate, pH 7.7 (incubation buffer) • B: 50 mM Tris HCl; pH 7.7 (wash buffer) Procedure: Assay additions are as follows (in the order indicated): • Total Binding=50 μl buffer A+50 μl [^3H]prazosin+100 μl membrane • Nonsp. Bd.=50 μl 10 μM phentolamine+50 μl [^3H]prazosin+100 μl membrane • Test Cpd.=50 μl compound+50 μl [^3H]prazosin+100 μl membrane • Compounds to be evaluated are weighed out to yield a 10 mM stock solution in DMSO in a 24 well polystyrene plate. This is diluted to a 0.5 mM stock in dH2O. Serial dilutions in Buffer A are made from which 50 μl additions to the plate are made in duplicate in order to achieve the final concentrations desired. Typically, one 96 well plate is used to evaluate 11 compounds at 4 concentrations (10^−6-10^−9 M) in duplicate. […]

[1] = human α-1, 6-fluoro vs 6-trifluoromethyl benzo[b]thiophene pairs, read-out: halpha 1 Ki (nM) h = human
[2] = h = human, piperazines (n = 1) vs homopiperazines (n = 2), read-out: h-α1 Ki

| Structure (SMILES) | Ki [1] | Ki [2] | also measured |
| --- | --- | --- | --- |
| O=C(NCCCCN1CCN(c2csc3cc(C(F)(F)F)ccc23)CC1)c1cc2ccccc2s1 [814238A] | 78.3 nM | – | – |
| O=C(NCCCCN1CCN(c2csc3cc(C(F)(F)F)ccc23)CC1)c1ccc(-c2ccccc2)cc1 [815547A] | – | – | halpha 1 % I h = human (Inh @ 10 uM): 18.7% @ 10 uM |
| O=C(NCCCCN1CCCN(c2csc3cc(F)ccc23)CC1)c1ccc2ccccc2c1 [822223G] | – | 123 nM | – |
| O=C(NCCCCN1CCCN(c2csc3cc(F)ccc23)CC1)c1cc2ccccc2s1 [822224G] | – | 82.5 nM | – |
| O=C(NCCCCN1CCCN(c2csc3cc(F)ccc23)CC1)c1ccco1 [S981843] | – | 5.6 nM | – |
| CCOc1ccc(C(=O)NCCCCN2CCN(c3csc4cc(C(F)(F)F)ccc34)CC2)cc1 [compound 815541] | 1110 nM | – | halpha 1 % I h = human (Inh @ 10 uM): 48% Inh @ 10 uM |
| O=C(NCCCCN1CCN(c2csc3cc(C(F)(F)F)ccc23)CC1)c1ccc(F)cc1F [compound 815542] | 68 nM | – | – |
| O=C(NCCCCN1CCN(c2csc3cc(C(F)(F)F)ccc23)CC1)c1ccc2c(c1)OCO2 [compound 815544] | 62 nM | – | – |
| CCCCOc1ccc(C(=O)NCCCCN2CCN(c3csc4cc(C(F)(F)F)ccc34)CC2)cc1 [compound 815545] | – | – | halpha 1 % I h = human (Inh @ 10 uM): 25% Inh @ 10 uM |
| O=C(NCCCCN1CCN(c2csc3cc(C(F)(F)F)ccc23)CC1)c1sc2ccccc2c1Cl [compound 815546] | 59 nM | – | – |
| O=C(NCCCCN1CCN(c2csc3cc(C(F)(F)F)ccc23)CC1)c1ccc(Cl)cc1 [compound 815548] | – | – | halpha 1 % I h = human (Inh @ 1 uM): 27% Inh @ 1 uM |
| O=C(NCCCCN1CCN(c2csc3cc(C(F)(F)F)ccc23)CC1)c1ccc(Br)cc1 [compound 815551] | 80 nM | – | – |
| COc1ccccc1C(=O)NCCCCN1CCN(c2csc3cc(C(F)(F)F)ccc23)CC1 [compound 815554] | – | – | halpha 1 % I h = human (Inh @ 1 uM): 40% Inh @ 1 uM |
| O=C(NCCCCN1CCN(c2csc3cc(C(F)(F)F)ccc23)CC1)c1ccc(C(F)(F)F)cc1 [compound 815555] | – | – | halpha 1 % I h = human (Inh @ 1 uM): 24% Inh @ 1 uM |
| O=C(NCCCCN1CCN(c2csc3cc(C(F)(F)F)ccc23)CC1)c1ccco1 [compound 815556] | 12 nM | – | – |
| O=C(NCCCCN1CCN(c2csc3cc(C(F)(F)F)ccc23)CC1)c1c(F)cccc1F [compound 815557] | 72 nM | – | – |
| O=C(NCCCCN1CCCN(c2csc3cc(F)ccc23)CC1)c1ccc(OC(F)(F)F)cc1 [compound 822152] | – | 122 nM | – |
| O=C(NCCCCN1CCCN(c2csc3cc(F)ccc23)CC1)c1cccc(F)c1 [compound 822154] | – | 41.8 nM | – |
| COc1ccccc1C(=O)NCCCCN1CCCN(c2csc3cc(F)ccc23)CC1 [compound 822157] | – | 27.4 nM | – |
| CC(C)(C)c1ccc(C(=O)NCCCCN2CCCN(c3csc4cc(F)ccc34)CC2)cc1 [compound 822198] | – | 209 nM | – |
